Test results published in patent US20250326771A1, “PIPERAZINE DERIVATIVES USEFUL IN HIV THERAPY” (VIIV HEALTHCARE COMPANY, priority 2022, published 2025).
Read-outs that look alike come from different tables or passages of the source.

How the values were obtained:
cIAP2-BIR3 = cIAP2-BIR3 (Homo sapiens (Human), UniProt Q13489); experiment: BIR binding assay (FRET competition), cIAP2 BIR3; details: for cIAP2 BIR3 vs BIR2 separation window: fold separation (FS) for cIAP2
XIAP-BIR2 = XIAP-BIR2 (Homo sapiens (Human), UniProt P98170); experiment: BIR binding assay (FRET competition), XIAP BIR2
Method: The BIR domain binding assays are FRET based competition assays that utilize His-tagged versions of each of the BIR2 and BIR3 domains from cIAP1, cIAP2, and XIAP (each domain assayed separately) each at a custom optimal concentration and a probe, 200 nM SMAC/DIABLO peptide AVPIAQKSE labelled with AlexaFluor647 (part #crb 1110326h, Discovery Peptides). The assay is conducted in 50 mM HEPES, […], 1 mM CHAPS, 5% Glycerol, 1 mM DTT, in dI water with a final pH of 7.4 and final volume of 20 uL. Final protein domain concentrations are: 50 nM cIAP1-BIR3 (Part #APT-11-370 Reaction Biology), 100 nM XIAP-BIR3 (Part #APT-11-351 Reaction Biology), 200 nM XIAP-BIR2 (Part #APT-11-470 Reaction Biology), 325 nM cIAP2-BIR2 (Part #APT-11-489 Reaction Biology), 50 nM cIAP2-BIR3 (Part #APT-11-372 Reaction Biology), 325 nM cIAP1-BIR2 (Part #APT-11-487 Reaction Biology). Compounds were plated using a HP Tecan D300 printer in a final total volume of 202 nl and DMSO concentration normalized across the 15-point, 3-fold dilution series. Peptide and probe were prepared at 2× relative to the concentrations above in binding buffer, 10 uL added to the prepared compound plates, and incubated for 60 minutes. LANCE Eu-W1024 (part #AD0401 Perkin Elmer #, vendor) was prepared at 2× concentration in binding buffer for final concentration of 2 nM, 10 uL added to each well, and plates incubated for 30 minutes. Plates were read on an ENVISION multifunction plate reader with […] laser excitation to obtain the 615 nm/665 nm emission ratio as indicative of probe:protein proximity. Data was analyzed using GraphPad PRISM and curves fit using log(inhibitor) vs. response—Variable slope (four […] method to obtain IC50 and pIC50 values.

cIAP2-BIR2 = cIAP2-BIR2 (Homo sapiens (Human), UniProt Q13489); experiment: BIR binding assay (FRET competition), cIAP2 BIR2
How it was run: (§1)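 His-tagged domains (50 nM cIAP1-BIR3, 325 nM cIAP2-BIR2, 325 nM cIAP1-BIR2, 100 nM XIAP-BIR3) compete with compounds for a 200 nM AlexaFluor647-labelled SMAC/DIABLO peptide in HEPES buffer, pH 7.4, for 60 min. Then 2 nM Eu-W1024 is added for 30 min. The 615/665 nm ratio is fit by four-parameter fit to give IC50.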

cIAP1-BIR3 = cIAP1-BIR3 (Homo sapiens (Human), UniProt Q13490); experiment: BIR binding assay (FRET competition), cIAP1 BIR3
How it was run: as §1

XIAP-BIR3 = XIAP-BIR3 (Homo sapiens (Human), UniProt P98170); experiment: BIR binding assay (FRET competition), XIAP BIR3; details: for XIAP BIR3 vs BIR2 separation window: fold separation (FS) for XIAP
How it was run: as §1

[1] = system: Jurkat HIV-luciferase clones; experiment: Jurkat latency reversal assay; format: cell-based; details: Homo sapiens, 48 h; Jurkat latency reversal assay potency; read-out: Jurkat pEC50 (converted)
How it was run: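 Compounds are titrated 3-fold over 14 points from 10 μM in duplicate at 0.5% DMSO. Clones C16, 115 and N6, grown with 500 nM EFV, are co-incubated for 48 h at 37° C. Virally driven luciferase is read by luminescence, and EC50 and maximal percent activation versus vehicle come from a four-parameter model.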

cIAP1-BIR2 = cIAP1-BIR2 (Homo sapiens (Human), UniProt Q13490); experiment: BIR binding assay (FRET competition), cIAP1 BIR2
How it was run: as §1

[2] = FRET competition, read-out: XIAP BIR2 (pIC50) (converted)

Sequence of cIAP1-BIR3 (Q13490 253-363): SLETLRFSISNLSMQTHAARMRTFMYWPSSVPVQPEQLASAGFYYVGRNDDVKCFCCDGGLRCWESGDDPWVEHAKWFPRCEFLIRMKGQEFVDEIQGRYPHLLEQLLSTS
Sequence of cIAP2-BIR3 (Q13489 238-349): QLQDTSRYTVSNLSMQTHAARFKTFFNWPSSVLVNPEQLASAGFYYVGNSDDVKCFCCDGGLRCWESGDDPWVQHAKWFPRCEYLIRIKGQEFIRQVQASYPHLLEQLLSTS
Sequence of XIAP-BIR2 (P98170 124-240): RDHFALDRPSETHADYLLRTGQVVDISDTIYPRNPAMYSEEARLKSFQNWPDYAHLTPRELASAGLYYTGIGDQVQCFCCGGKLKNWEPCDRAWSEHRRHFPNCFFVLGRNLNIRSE
Sequence of XIAP-BIR3 (P98170 241-356): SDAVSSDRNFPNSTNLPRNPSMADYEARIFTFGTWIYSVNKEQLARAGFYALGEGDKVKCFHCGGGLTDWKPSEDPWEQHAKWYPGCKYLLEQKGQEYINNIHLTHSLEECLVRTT
Sequence of cIAP2-BIR2 (Q13489 158-242): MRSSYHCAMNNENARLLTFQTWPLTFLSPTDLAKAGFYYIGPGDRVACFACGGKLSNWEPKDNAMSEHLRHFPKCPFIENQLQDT
Sequence of cIAP1-BIR2 (Q13490 173-257): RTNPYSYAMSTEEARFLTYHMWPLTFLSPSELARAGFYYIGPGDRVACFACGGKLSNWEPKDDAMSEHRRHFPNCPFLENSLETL

SMILES	IC50 (cIAP2-BIR3)	cIAP2 BIR3 vs BIR2 separation window (cIAP2-BIR3)	IC50 (XIAP-BIR2)	IC50 (cIAP2-BIR2)	IC50 (cIAP1-BIR3)	IC50 (XIAP-BIR3)	XIAP BIR3 vs BIR2 separation window (XIAP-BIR3)	EC50 [1]	IC50 (XIAP-BIR2; [2])	cIAP1 BIR3 vs BIR2 separation window (cIAP1-BIR3; fold separation (FS) for cIAP1)	IC50 (cIAP1-BIR2)	XIAP BIR2 (pIC50) (XIAP-BIR2; FRET competition binding)
C[C@@H]1CN(CC(=O)N2CC(C)(C)c3[nH]c(=O)c(Cc4ccc(F)cc4)cc32)[C@@H](CN2CCO[C@H](COc3ccc(Oc4cccc(Oc5ccc(OC[C@@H]6CN(C[C@H]7CN[C@H](C)CN7CC(=O)N7CC(C)(C)c8[nH]c(=O)c(Cc9ccc(F)cc9)cc87)CCO6)cc5)c4)cc3)C2)CN1 [Example 60, 1,1′-(2,2′-((3R,3′R,6R,6′R)-(((2S,2'S)-((((1,3-phenylenebis(oxy))bis(4,1-phenylene))bis(oxy))bis(methylene))bis(morpholine-2,4-diyl))bis(methylene))bis(3-methylpiperazine-6,1-diyl))bis(acetyl))bis(6-(4-fluorobenzyl)-3,3-dimethyl-1,2,3,4-tetrahydro-5H-pyrrolo[3,2-b]pyridin-5-one)]	15.8 to 31.6 nM	++++ (FS>10,000)	10000 to 51300 nM	10000 to 51300 nM	31.6 to 501 nM	31.6 to 501 nM	++++ (FS>10,000)	12.6 to 63.1 nM				
C[C@@H]1CN(CC(=O)N2CC(C)(C)c3ncc(Oc4ccc(F)cc4)cc32)[C@@H](CN2CCO[C@H](COc3cccc(OC[C@@H]4CN(C[C@H]5CN[C@H](C)CN5CC(=O)N5CC(C)(C)c6ncc(Oc7ccc(F)cc7)cc65)CCO4)c3)C2)CN1 [Compound 142, 1-[6-(4-fluorophenoxy)-3,3-dimethyl-2H-pyrrolo[3,2-b]pyridin-1-yl]-2-[(2R,5R)-2-[[(2S)-2-[[3-[[(2S)-4-[[(2R,5R)-1-[2-[6-(4-fluorophenoxy)-3,3-dimethyl-2H-pyrrolo[3,2-b]pyridin-1-yl]-2-oxo-ethyl]-5-methyl-piperazin-2-yl]methyl]morpholin-2-yl]methoxy]phenoxy]methyl]morpholin-4-yl]methyl]-5-methyl-piperazin-1-yl]ethanone]	15.8 to 31.6 nM				15.8 to 31.6 nM	31.6 to 501 nM	+++ (10,000>FS>1,000)	12.6 to 63.1 nM	10000 to 51300 nM	+++ (10,000>FS>1,000)	10000 to 51300 nM	
C[C@@H]1CN(CC(=O)N2CC(C)(C)c3[nH]c(=O)c(Oc4ccc(Cl)cc4)cc32)[C@@H](CN2CCO[C@H](C(=O)NCc3ccc(CNC(=O)[C@@H]4CN(C[C@H]5CN[C@H](C)CN5CC(=O)N5CC(C)(C)c6[nH]c(=O)c(Oc7ccc(Cl)cc7)cc65)CCO4)cc3)C2)CN1 [Compound 182, (2S,2′S)-N,N′-(1,4-phenylenebis(methylene)) bis(4-(((2R,5R)-1-(2-(6-(4-chlorophenoxy)-3,3-dimethyl-5-oxo-2,3,4,5-tetrahydro-1H-pyrrolo[3,2-b]pyridin-1-yl)-2-oxoethyl)-5-methylpiperazin-2-yl)methyl)morpholine-2-carboxamide)]	1.38 to 7.94 nM	+++ (10,000>FS>1,000)		3160 to 10000 nM	7.94 to 15.8 nM	31.6 to 501 nM	+++ (10,000>FS>1,000)	63.1 to 316 nM	10000 to 51300 nM			
C[C@@H]1CN(CC(=O)N2CC(C)(C)c3[nH]c(=O)c(Cc4ccc(F)cc4)cc32)[C@@H](CN2CCO[C@H](COc3ccc(-c4ccccc4)c(OC[C@@H]4CN(C[C@H]5CN[C@H](C)CN5CC(=O)N5CC(C)(C)c6[nH]c(=O)c(Cc7ccc(F)cc7)cc65)CCO4)c3)C2)CN1 [Example 78, 1,1′-(2,2′-((3R,3′R,6R,6′R)-(((2S,2'S)—(([1,1′-biphenyl]-2,4-diylbis(oxy))bis(methylene))bis(morpholine-2,4-diyl))bis(methylene))bis(3-methylpiperazine-6,1-diyl))bis(acetyl))bis(6-(4-fluorobenzyl)-3,3-dimethyl-1,2,3,4-tetrahydro-5H-pyrrolo[3,2-b]pyridin-5-one)]	1.38 to 7.94 nM				1.38 to 7.94 nM	7.94 to 15.8 nM	+++ (10,000>FS>1,000)	12.6 to 63.1 nM				++ (5.00<pIC50<=5.50)
